Test results from patent publication US10336788B2, “Inhibition of cardiac fibrosis in myocardial infarction” (Moerae Matrix, Inc., priority 2014, dated 2019).
No end group written: not given here.

Key:
HL1 cells [1] = assay: Caspase 3/7 activity in HL1 cells challenged with 1% hypoxia; format: cell-based, mouse; conditions: 100 μM, 12 hours
Method: (§1) H9C2 is a myoblast cell line derived from rat myocardium obtained from ATCC® (CRL-1446, ATCC, Manassas, Va.) and cultured according to the recommended protocols. Briefly, cells were maintained at 37° C. with 5% CO2 in DMEM supplemented with 10% fetal bovine serum and antibiotics (100 U/ml penicillin, […] streptomycin) and split at a ratio of 1:4 using 0.05% trypsin every 36 hours. […]
(§2) Cells were rinsed in PMS and grown in DMEM (cat. #11966-025, Gibco) for 2 hours prior to initiating hypoxia (simulated ischemia). […] Three different time points were adopted for each of the three cell lines according to the severity of cell death under hypoxia determined by LDH release: for H9C2 cell line: 8 hr; 16 hr; 24 hr; for HL-1 cell line: 4 hr; 8 hr; 12 hr; for cardiac fibroblast cell line: 16 hr; 32 hr; 48 hr.
(§3) Cell death was first determined using an LDH release assay (cat. #630117, Clontech), according to the manufacturer's instructions. […] Caspase 3/7 activity was next determined using a commercial Caspase 3/7 activity kit (Cat. #G8091, Promega, Madison, Wis. 53711) in a 384 well plate (Cat. #781903, Greiner bio-one) according to the manufacturer's instructions. […] The resulting cell lysates (25 μl, with 0.6 ug total protein) and Caspase-Glo 3/7 Reagent were added to each well in a 1:1 ratio and the luminescence was read (CLARIOstar, BMG LABTECH GmbH). […]

[2] = system: primary cardiac fibroblasts; assay: Caspase 3/7 activity in primary cardiac fibroblasts challenged with 1% hypoxia; format: cell-based, rat; conditions: 100 μM, 16 and 32 hours of hypoxia
Method: as §1, §2, §3

HL1 cells [3] = assay: LDH release assay in HL1 cells (1% hypoxia or normoxia); format: cell-based, mouse; conditions: for LDH release: 1% hypoxia
Method: H9C2 is a myoblast cell line derived from rat myocardium obtained from ATCC® (CRL-1446, ATCC, Manassas, Va.) and cultured according to the recommended protocols. Briefly, cells were maintained at 37° C. with 5% CO2 in DMEM supplemented with 10% fetal bovine serum and antibiotics (100 U/ml penicillin, […] streptomycin) and split at a ratio of 1:4 using 0.05% trypsin every 36 hours. HL-1 cells were obtained from Dr. William Claycomb and cultured according to the published protocols [Claycomb W C, Lanson N A, Jr., Stallworth B S, Egeland D B, Delcarpio J B, Bahinski A, et al. HL-1 cells: a cardiac muscle cell line that contracts and retains phenotypic characteristics of the adult cardiomyocyte. Proc. Natl Acad. Sci. USA. 1998; 95:2979-84; White S M, Constantin P E, Claycomb W C. Cardiac physiology at the cellular level: use of cultured HL-1 cardiomyocytes for studies of cardiac muscle cell structure and function. Am. J. Physiol. Heart Circul. Physiol. 2004; 286:H823-9]. Briefly, cells were cultured in Claycomb medium (JRH Biosciences, USA) supplemented with 10% fetal bovine serum (JRH Biosciences), 2 mM L-glutamine (Gibco, Grand Island, N.Y.), 100 μM norepinephrine (Sigma, USA), 100 U/mL penicillin, and 100 μg/mL streptomycin (Gibco) in flasks precoated with fibronectin and gelatin (Sigma), then incubated at 37° C. in 5% CO2. Cells were split at a ratio of 1:4 using 0.05% trypsin every 48 hours. Primary cardiac fibroblasts were obtained from 2-4-day-old Sprague Dawley rats, according to previously described protocols (cat. #L K003300, Worthington Biochemical Corp., Lakewood, N.J.) [Toraason M, Luken M E, Breitenstein M, Krueger J A, Biagini R E. Comparative toxicity of allylamine and acrolein in cultured myocytes and fibroblasts from neonatal rat heart. Toxicology. […]
as §2, §3

mouse vein graft model = conditions: Muto et al. 2012; cited from earlier work
[4] = system: bleomycin-induced pulmonary fibrosis; conditions: Vittal et al. 2013; cited from earlier work
C57BL/6 mice = assay: Survival analysis (Kaplan-Meier) after permanent LAD ligation or daily peptide; format: in vivo, mouse
Excerpt: Nature Medicine. […] Nature. 2012; 485:593-8]. […] Proc Natl Acad Scie USA. […] Circulation Res. 2009; 105:80-8].
SigmaPlot (Systat Software, Inc., San Jose, Calif.) was used to determine significant statistical differences using a Log-rank (Mantel-Cox) test to determine differences in survival or a Kruskal-Wallis one-way ANOVA for both in vivo and in vitro studies at each terminal time point in experiments run in parallel. If significance was reached (p<0.05), a post-hoc all pairwise Multiple Comparison Procedures (Tukey Test) was performed between each of the groups to determine significance. Significance was defined as p<0.05.

H9C2 cells = assay: LDH release assay in H9C2 cells (1% hypoxia or normoxia); format: cell-based, rat; conditions: for LDH release: 1% hypoxia
Method: H9C2 is a myoblast cell line derived from rat myocardium obtained from ATCC® (CRL-1446, ATCC, Manassas, Va.) and cultured according to the recommended protocols. Briefly, cells were maintained at 37° C. with 5% CO2 in DMEM supplemented with 10% fetal bovine serum and antibiotics (100 U/ml penicillin, […] streptomycin) and split at a ratio of 1:4 using 0.05% trypsin every 36 hours. HL-1 cells were obtained from Dr. William Claycomb and cultured according to the published protocols [Claycomb W C, Lanson N A, Jr., Stallworth B S, Egeland D B, Delcarpio J B, Bahinski A, et al. HL-1 cells: a cardiac muscle cell line that contracts and retains phenotypic characteristics of the adult cardiomyocyte. Proc. Natl Acad. Sci. USA. 1998; 95:2979-84; White S M, Constantin P E, Claycomb W C. Cardiac physiology at the cellular level: use of cultured HL-1 cardiomyocytes for studies of cardiac muscle cell structure and function. Am. J. Physiol. Heart Circul. Physiol. 2004; 286:H823-9]. […]
as §2, §3

YARAAARQARAKALARQLGVAA [MMI-0100]
caspase 3/7 activity (HL1 cells [1]): inhibited | caspase 3/7 activity [2]: significantly enhanced | LDH release (HL1 cells [3]; 100 μM only, 8 hours): enhanced | LDH release in normoxic conditions (HL1 cells [3]; 100 μM, normoxia (FIG. 11B)): unexpectedly inhibited | LDH release (HL1 cells [3]; 20 and 100 μM, 4 hours): significantly enhanced | LDH release in normoxic conditions (HL1 cells [3]; absence of hypoxia, 4 hours): did not enhance LDH release | inflammation and fibrosis in intimal hyperplasia (mouse vein graft model): inhibits inflammation and fibrosis | inflammation and fibrosis in bleomycin-induced pulmonary fibrosis [4]: inhibits inflammation and fibrosis | survival after AMI with or without MMI-0100 treatment (C57BL/6 mice; AMI mice, daily intraperitoneal dosing, 14 days): no differences in survival | effect on survival, MMI-0100 alone (C57BL/6 mice; mice without AMI, daily MMI-0100 intraperitoneally vs PBS): did not have any effect | LDH release (H9C2 cells; 100 μM only, 16 hours): enhanced | LDH release (H9C2 cells; 20 and 100 μM, 8 hours): significantly enhanced | LDH release in normoxic conditions (H9C2 cells; absence of hypoxia, 8 hours): did not enhance LDH release
